Laboratory results from patent US8697407B2, “Compositions and methods for inhibiting MMSET” (The Regents of The University of Michigan, priority 2010, dated 2014).
“Also recorded” adds a separate entry of the source. Read-outs that look alike come from different tables or passages of the source.

Legend:
[1] = tested on: histone H3 methylation in DU145 cells; assay: Immunoblot analyses of histone H3 methylation modifications; type: cell-based
Description: DU145 cells were incubated with multiple doses of small molecule inhibitors for 96 hours or were subjected to siRNA-mediated MMSET knockdown as described herein (e.g., using sh1 GGUCCAAAGUGUCGGGUUA or sh2 GUCAGUGGAGGAGCGGAA). Cells were homogenized in NP40 lysis buffer (50 mM Tris-HCl, 1% NP40, pH 7.4, Sigma, St. Louis, Mo.) with Complete proteinase inhibitor mixture (Roche, Indianapolis, Ind.). Ten micrograms of each protein extract were boiled in sample buffer, separated by SDS-PAGE, and transferred onto Polyvinylidene Difluoride membrane (GE Healthcare). The membrane was incubated for one hour in blocking buffer and incubated overnight at 4° C. with the following antibodies: anti-mono, di, and trimethylated H3-27, anti-di and trimethylated H3-k36, and anti-trimethylated H3-K9. Following a wash with TBS-T, the blot was incubated with horseradish peroxidase-conjugated secondary antibody. Signals were visualized by enhanced chemiluminescence as described by the manufacturer (GE Healthcare). The blots were re-probed with anti-H3 and β-actin for confirmation of equal loading.

multiple cancers = assay: Cell viability (FIGS. 11-26); type: cell-based
DU145 cells [2] = assay: WST-1 cell viability assay; type: cell-based
Description: In order to test the activity of MMSET inhibitors on cell viability, a WST-1 cell viability assay (Roche) was performed. The aggressive prostate cell line DU145 was treated with different doses of small molecules dissolved in DMSO for 96 hours before performing the WST-1 assay according to manufacturer's protocol. Each experiment was performed 8 times and absorbance was measured at 450 nm.

[3] = tested on: translocation positive MM cell lines; assay: Specificity in MM cell lines; type: cell-based
DU145 cells [4] = assay: Basement membrane matrix invasion assay; type: cell-based; details: 48 hours
Description: DU145 cells were used for invasion assays. In some experiments, MMSET knockdown was performed by transfecting cells with two different MMSET-specific siRNAs. Forty-eight hours post-transfection, cells were seeded onto the basement membrane matrix (EC matrix, Chemicon, Temecula, Calif.) present in the insert of a 24-well culture plate. In some experiments, MMSET was inhibited using a small molecule inhibitor (MCTP39). Fetal bovine serum was added to the lower chamber as a chemoattractant with or without 2 doses of small molecule inhibitors. After 48 hours, the non-invading cells and EC matrix were gently removed with a cotton swab. Invasive cells located on the lower side of the chamber were measured colorimetrically by treating with 150 μl of 10% acetic acid and the absorbance measured at 560 nm using a spectrophotometer.

xenograft tumors = assay: Xenograft tumors; details: in vivo

NNc1nc2ccccc2nc1S [MCTP39, 3-hydrazinylquinoxaline-2-thiol]
H3K27 trimethylation [1]: dose-dependent decreased | H3K36 dimethylation [1]: dose-dependent decreased | H3K36 trimethylation [1]: dose-dependent decreased | H3K27 dimethylation ([1]; 96 hours): dose-dependent decreased | H3K27 trimethylation ([1]; listed as N39): reduced | H3K36 dimethylation ([1]; listed as N39): reduced | H3K36 trimethylation ([1]; listed as N39): reduced | cell viability (multiple cancers): decreased | proliferation of DU145 cells (DU145 cells [2]): affected proliferation and invasion of DU145 cells even at very low concentration | IC50 (DU145 cells [2]; Homo sapiens, DU-145, 96 hours, WST-1): < 3000 nM | specificity toward translocation positive MM cell lines [3]: shows specificity toward translocation positive MM cell lines | invasion of DU145 cells (DU145 cells [4]): affected proliferation and invasion of DU145 cells even at very low concentration | tumor size / tumor volume in xenograft tumors (xenograft tumors): decreased; also recorded: reduces tumor volume
